Data as given in patent US7462717B2, “C6-and C9-substituted chromeno[4,3-c]isoxazoline derivatives and their use as anti-depressants” (Janssen Pharmaceutica N.V., priority 2002, dated 2008).

Columns and labels:
h5-HT transporter = molecular target: T1, h5-HT transporter (Homo sapiens, UniProt P31645); test: Radioligand binding experiment for 5-HT transporter ([3H]paroxetine); details: human platelet membranes; [3H]paroxetine 0.5 nM; read-out: 5-HTT (converted)
T1 construct: Human platelet membranes (Oceanix Biosciences Corporation, Hanover, Md., USA) were thawed; tissue Oceanix Biosciences Corporation; host or cells: human platelet membranes
Experimental: (§1) The interaction of the compounds of Formula (I) with hα2-receptors and h5-HT-transporters was assessed in in vitro radioligand binding experiments. In general, a low concentration of a radioligand with a high binding affinity for a particular receptor or transporter is incubated with a sample of a tissue preparation enriched in a particular receptor or transporter or with a preparation of cells expressing cloned human receptors in a buffered medium. During the incubation, the radioligand binds to the receptor or transporter. When equilibrium of binding is reached, the receptor bound radioactivity is separated from the non-bound radioactivity, and the receptor- or transporter-bound activity is counted. The interaction of the test compounds with the receptor is assessed in competition binding experiments. Various concentrations of the test compound are added to the incubation mixture containing the receptor- or transporter preparation and the radioligand. The test compound in proportion to its binding affinity and its concentration inhibits binding of the radioligand. The radioligand used for hα2A, hα2B and hα2C receptor binding was [^3H]-raulwolscine and for the h5-HT transporter was [^3H]paroxetine.
Human platelet membranes (Oceanix Biosciences Corporation, Hanover, Md., USA) were thawed, diluted in buffer (Tris-HCl 50 mM, 120 mM NaCl and 5 mM KCl) and quickly (max 3 s) homogenised with an Ultraturrax homogenizer. In a total volume of 250 μL, 50-100 μg protein was incubated with [^3H]paroxetine (NET-869) (New England Nuclear, USA) (0.5 nM final concentration) with or without competitor for 60 min at 25° C. Incubation was stopped by rapid filtration of the incubation mixture over GF/B filters, pre-wetted with 0.1% polyethyleneamine, using a Filtermate 196 harvester (Packard, Meriden, Conn.). Filters were rinsed extensively with ice-cold buffer and radioactivity on the filters was counted in a Topcount liquid scintillation counter (Packard, Meriden, Conn.). Data were expressed as cpm. Imipramine (at 1 μM final concentration) was used to determine the non-specific binding.
(§2) Data from assays in the presence of compound were calculated as a percentage of total binding measured in the absence of test compound. Inhibition curves, plotting percent of total binding versus the log value of the concentration of the test compound, were automatically generated, and sigmoidal inhibition curves were fitted using non-linear regression. The pIC50 values of test compounds were derived from individual curves. All compounds according to Formula (I) produced an inhibition at least at the hα2A site (but often also at the hα2B and hα2C sites) and simultaneously at the 5-HT transporter site of more than 50% (PIC50) at a test concentration ranging between 10^−6 M and 10^−9 M in a concentration-dependent manner.

hα2C receptor = molecular target: T2, hα2C receptor (Homo sapiens, UniProt P18825); test: Radioligand binding experiment for α2C-adrenergic receptor ([3H]-raulwolscine); details: membranes of CHO cells transfected with human α2C receptor; [3H]raulwolscine 1 nM
T2 construct: expressed in transfected cells
T2 sequence (P18825 1-462): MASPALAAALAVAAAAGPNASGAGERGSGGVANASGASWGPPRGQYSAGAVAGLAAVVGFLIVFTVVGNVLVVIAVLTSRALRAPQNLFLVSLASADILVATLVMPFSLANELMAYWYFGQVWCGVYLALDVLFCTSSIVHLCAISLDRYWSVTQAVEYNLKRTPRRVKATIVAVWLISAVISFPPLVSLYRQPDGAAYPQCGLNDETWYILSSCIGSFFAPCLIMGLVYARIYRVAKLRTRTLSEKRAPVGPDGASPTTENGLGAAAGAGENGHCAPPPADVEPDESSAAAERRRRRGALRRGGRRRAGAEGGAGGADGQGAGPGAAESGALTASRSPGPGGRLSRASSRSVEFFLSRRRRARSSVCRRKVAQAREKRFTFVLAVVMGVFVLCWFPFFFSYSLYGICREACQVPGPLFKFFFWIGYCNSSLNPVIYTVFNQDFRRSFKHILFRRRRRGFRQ
Experimental: as §1
(§3) CHO cells, stabile transfected with human adrenergic-α2A-, -α2B or α2C receptor cDNA, were cultured in Dulbecco's Modified Eagle's Medium (DMEM)/Nutrient mixture Ham's F12 (ratio 1:1) (Gibco, Gent-Belgium) supplemented with 10% heat inactivated fetal calf serum (Life Technologies, Merelbeke-Belgium) and antibiotics (100 IU/ml penicillin G, 100 μg/ml streptomycin sulphate, 110 μg/ml pyruvic acid and 100 μg/ml L-glutamine). One day before collection, cells were induced with 5 mM sodiumbutyrate. Upon 80-90% of confluence, cells were scraped in phosphate buffered saline without Ca^2+ and Mg^2+ and collected by centrifugation at 1500×g for 10 min. The cells were homogenised in Tris-HCl 50 mM using an Ultraturrax homogenizer and centrifuged for 10 min at 23,500×g. The pellet was washed once by resuspension and rehomogenization and the final pellet was resuspended in Tris-HCl, divided in 1 ml aliquots and stored at −70° C.
(§4) Membranes were thawed and re-homogenized in incubation buffer (glycylglycine 25 mM, pH 8.0). In a total volume of 500 μl, 2-10 μg protein was incubated with [^3H]raulwolscine (NET-722) (New England Nuclear, USA) (1 nM final concentration) with or without competitor for 60 min at 25° C. followed by rapid filtration over GF/B filter using a Filtermate 196 harvester (Packard, Meriden, Conn.). Filters were rinsed extensively with ice-cold rinsing buffer (Tris-HCl 50 mM pH 7.4). Filter-bound radioactivity was determined by scintillation counting in a Topcount (Packard, Meriden, Conn.) and results were expressed as counts per minute (cpm). Non-specific binding was determined in the presence of 1 μM oxymetazoline for hα2A- and hα2B-receptors and 1 μM spiroxatrine for hα2C receptors.
as §2

hα2B receptor = molecular target: T3, hα2B receptor (Homo sapiens, UniProt P18089); test: Radioligand binding experiment for α2B-adrenergic receptor ([3H]-raulwolscine); details: membranes of CHO cells transfected with human α2B receptor; [3H]raulwolscine 1 nM
T3 construct: expressed in transfected cells
T3 sequence (P18089 1-450): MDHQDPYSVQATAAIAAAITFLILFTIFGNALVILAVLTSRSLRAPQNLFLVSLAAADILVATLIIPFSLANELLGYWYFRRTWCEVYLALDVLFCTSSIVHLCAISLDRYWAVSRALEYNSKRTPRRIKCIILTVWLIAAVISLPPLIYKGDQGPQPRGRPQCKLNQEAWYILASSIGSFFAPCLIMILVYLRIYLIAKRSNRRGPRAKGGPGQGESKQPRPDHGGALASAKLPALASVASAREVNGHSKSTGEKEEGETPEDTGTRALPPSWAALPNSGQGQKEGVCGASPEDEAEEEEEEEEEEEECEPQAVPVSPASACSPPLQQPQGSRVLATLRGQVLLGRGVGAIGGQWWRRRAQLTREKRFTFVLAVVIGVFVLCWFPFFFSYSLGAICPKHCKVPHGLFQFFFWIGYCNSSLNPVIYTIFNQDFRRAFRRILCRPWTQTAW
Experimental: as §1, §3, §4, §2

hα2A receptor = molecular target: T4, hα2A receptor (Homo sapiens, UniProt P08913); test: Radioligand binding experiment for α2A-adrenergic receptor ([3H]-raulwolscine); details: membranes of CHO cells transfected with human α2A receptor; [3H]raulwolscine 1 nM
T4 construct: expressed in transfected cells
T4 sequence (P08913 1-465): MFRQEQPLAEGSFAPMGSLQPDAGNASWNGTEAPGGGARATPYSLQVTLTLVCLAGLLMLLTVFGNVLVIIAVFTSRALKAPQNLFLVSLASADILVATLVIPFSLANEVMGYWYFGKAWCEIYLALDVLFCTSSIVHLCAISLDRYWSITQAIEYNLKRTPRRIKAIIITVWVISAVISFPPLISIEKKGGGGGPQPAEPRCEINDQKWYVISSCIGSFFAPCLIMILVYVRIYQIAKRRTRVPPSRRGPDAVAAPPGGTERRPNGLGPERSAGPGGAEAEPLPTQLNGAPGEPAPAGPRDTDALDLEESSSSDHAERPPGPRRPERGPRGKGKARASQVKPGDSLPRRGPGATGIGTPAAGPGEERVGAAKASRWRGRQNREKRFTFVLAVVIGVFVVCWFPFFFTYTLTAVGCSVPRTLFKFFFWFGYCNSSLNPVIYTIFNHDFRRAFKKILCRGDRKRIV
Experimental: as §1, §3, §4, §2

T1 sequence (P31645 whole entry): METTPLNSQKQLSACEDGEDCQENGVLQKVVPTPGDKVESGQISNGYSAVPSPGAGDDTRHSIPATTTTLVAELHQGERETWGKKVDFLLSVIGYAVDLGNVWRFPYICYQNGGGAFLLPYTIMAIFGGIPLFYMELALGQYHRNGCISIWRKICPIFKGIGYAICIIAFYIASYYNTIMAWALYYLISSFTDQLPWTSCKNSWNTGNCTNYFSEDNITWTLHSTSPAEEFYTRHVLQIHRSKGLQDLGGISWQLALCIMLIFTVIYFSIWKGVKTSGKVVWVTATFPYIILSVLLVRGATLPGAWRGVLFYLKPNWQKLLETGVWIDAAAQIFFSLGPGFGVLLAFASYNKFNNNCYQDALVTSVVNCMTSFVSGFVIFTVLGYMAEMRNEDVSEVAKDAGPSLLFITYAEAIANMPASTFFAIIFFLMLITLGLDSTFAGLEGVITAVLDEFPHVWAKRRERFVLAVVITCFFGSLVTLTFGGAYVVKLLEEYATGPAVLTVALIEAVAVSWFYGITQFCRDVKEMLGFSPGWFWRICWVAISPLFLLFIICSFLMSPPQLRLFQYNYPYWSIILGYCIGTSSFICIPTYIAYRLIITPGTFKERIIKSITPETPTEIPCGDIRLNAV

Row | IC50 (h5-HT transporter) [nM] | IC50 (hα2C receptor) [nM] | IC50 (hα2B receptor) [nM] | IC50 (hα2A receptor) [nM] | Compound
1 | 50.1 | 25.1 | 31.6 | 25.1 | COc1cc2c(c(I)c1OC)OCC1C2=NOC1CN1CCN(CC(C)=Cc2ccc(F)cc2)CC1 (stereo not shown) [Compound 18]
2 | 10 | 15.8 | 6.31 | 63.1 | CCNC(=O)Nc1cccc2c1OCC1C2=NOC1CN1CCN(CC(C)=Cc2ccccc2)CC1 (stereo not shown) [Compound 17]
3 | 251 | 2.51 | 1 | 2 | COc1cccc2c1C1=NOC(CN3CCN(CC(C)=Cc4ccccc4)CC3)C1CO2 (stereo not shown) [Compound 8]
4 | 126 | 15.8 | 20 | 10 | COc1cc2c(c(C#N)c1OC)OCC1C2=NOC1CN1CCN(CC(C)=Cc2ccc(F)cc2)CC1 (stereo not shown) [Compound 19]
5 | 63.1 | 1.26 | 3.98 | 6.31 | CCOC(=O)c1c(OC)c(OC)cc2c1OC[C@@H]1C2=NO[C@H]1CN1CCN(C/C(C)=C/c2ccccc2)CC1 (single isomer, unassigned) [Compound 4, 7,8-dimethoxy-3-[4-(2-methyl-3-phenyl-allyl)-piperazin-1-ylmethyl]-3a,4-dihydro-3H-chromeno[4,3-c]isoxazole-6-carboxylic acid ethyl ester]
6 | 39.8 | 6.31 | 5.01 | 79.4 | CCNC(=O)OCCOc1cccc2c1OCC1C2=NOC1CN1CCN(CC(C)=Cc2ccccc2)CC1 (stereo not shown) [Compound 10]
7 | 316 | 2 | 1.58 | 39.8 | COCC(=O)OCCOc1cccc2c1OCC1C2=NOC1CN1CCN(CC(C)=Cc2ccccc2)CC1 (single isomer, unassigned) [Compound 25]
8 | 158 | 1.26 | 5.01 | 2 | COC(=O)c1c(OC)c(OC)cc2c1OCC1C2=NOC1CN1CCN(C/C(C)=C/c2ccccc2)CC1 (single isomer, unassigned) [Compound 5]
9 | 63.1 | 1.26 | 2 | 25.1 | CC(=Cc1ccccc1)CN1CCN(CC2ON=C3c4c(O)cccc4OCC32)CC1 (stereo not shown) [Compound 9]
10 | 31.6 | 39.8 | 25.1 | 100 | COCC(=O)OCCOc1cccc2c1OCC1C2=NOC1CN1CCN(CC(C)=Cc2ccccc2)CC1 (single isomer, unassigned) [Compound 24]
